For seven molecules, IC50 results are on record in patent publication US8163724B2, “Glucocorticosteroids, processes for their preparation, pharmaceutical compositions containing them and their use in therapy” (AstraZeneca AB, priority 2007, dated 2012).

pIC50: −log10 of the molar value.

The target in this test is T1, recombinant human GR (Homo sapiens, UniProt P04150).
T1 construct: purchased Panvera/Invitrogen P2812 (kit P2893)
T1 sequence (P04150 1-777): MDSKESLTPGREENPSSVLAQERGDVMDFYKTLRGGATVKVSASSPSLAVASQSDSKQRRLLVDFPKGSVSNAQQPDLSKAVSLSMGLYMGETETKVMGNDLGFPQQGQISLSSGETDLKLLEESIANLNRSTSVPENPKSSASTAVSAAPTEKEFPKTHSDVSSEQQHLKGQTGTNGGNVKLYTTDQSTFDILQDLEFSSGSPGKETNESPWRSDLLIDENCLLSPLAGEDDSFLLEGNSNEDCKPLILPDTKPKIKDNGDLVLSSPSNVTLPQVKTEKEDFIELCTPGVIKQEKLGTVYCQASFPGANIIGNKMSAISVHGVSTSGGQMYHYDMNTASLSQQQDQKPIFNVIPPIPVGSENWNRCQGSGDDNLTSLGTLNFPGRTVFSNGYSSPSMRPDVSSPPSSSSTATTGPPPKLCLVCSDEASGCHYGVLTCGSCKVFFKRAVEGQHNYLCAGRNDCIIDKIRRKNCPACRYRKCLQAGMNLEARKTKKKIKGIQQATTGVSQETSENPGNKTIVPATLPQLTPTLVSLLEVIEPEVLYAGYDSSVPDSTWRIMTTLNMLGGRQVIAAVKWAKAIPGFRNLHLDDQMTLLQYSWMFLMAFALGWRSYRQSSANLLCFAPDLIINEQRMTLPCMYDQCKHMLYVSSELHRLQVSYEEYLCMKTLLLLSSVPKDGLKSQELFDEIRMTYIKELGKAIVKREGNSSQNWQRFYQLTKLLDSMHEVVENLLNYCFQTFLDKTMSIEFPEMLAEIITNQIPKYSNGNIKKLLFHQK
Put plainly: Human Glucocorticoid Receptor (GR) Assay (fluorescence polarization, Panvera/Invitrogen kit). It counts as binding. The following applies: fluorescence polarization; GS Red tracer; 2 hours at room temperature; 100% control 10 μM Dexamethasone; read-out: Inhibition of GR binding, IC50. The method, boiled down:
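Fluorescence polarization competition with recombinant GR and GS Red fluorescent ligand plus stabilizing peptide and DTT in potassium phosphate/sodium molybdate/EDTA buffer with DMSO. Incubated 2 hours at room temperature in the dark; 0% control DMSO, 100% control 10 μM dexamethasone.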
Consider `C[C@]12Cc3cnn(-c4ccc(F)cc4)c3C=C1CC[C@@H]1[C@@H]2[C@@H](O)C[C@@]2(C)[C@H]1CC[C@]2(OC(=O)c1ccco1)C(=O)OCC#N` [Example 65, Cyanomethyl(1R,3aS,3bS,10aR,10bS,11S,12aS)-7-(4-fluorophenyl)-1-[(furan-2-ylcarbonyl)oxy]-11-hydroxy-10a,12a-dimethyl-1,2,3,3a,3b,4,5,7,10,10a,10b,11,12,12a-tetradecahydrocyclopenta[5,6]naphtho[1,2-f]indazole-1-carboxylate], for which the pIC50 (in general, the negative decadic logarithm of the IC50, by convention in mol/L) was 8.59. Take `COC(=O)[C@@]1(OC(=O)c2ccco2)CC[C@H]2[C@@H]3CCC4=Cc5c(cnn5-c5ccc(F)cc5)C[C@]4(C)[C@H]3[C@@H](O)C[C@@]21C` [Example 66, Methyl (1R,3aS,3bS,10aR,10bS,11S,12aS)-7-(4-fluorophenyl)-1-[(furan-2-yl-carbonyl)oxy]-11-hydroxy-10a,12a-dimethyl-1,2,3,3a,3b,4,5,7,10,10a,10b,11,12,12a-tetradecahydrocyclopenta[5,6]naphtho[1,2-f]indazole-1-carboxylate]: the negative logarithm of the IC50 (pIC50) was 8.48. For `CCOC(=O)O[C@]1(C(=O)SCC#N)CC[C@H]2[C@@H]3CCC4=Cc5c(cnn5-c5ccc(F)cc5)C[C@]4(C)[C@H]3[C@@H](O)C[C@@]21C` [Example 67, S-(Cyanomethyl)(1R,3aS,3bS,10aR,10bS,11S,12aS)-1-[(ethoxycarbonyl)oxy]-7-(4-fluorophenyl)-11-hydroxy-10a,12a-dimethyl-1,2,3,3a,3b,4,5,7,10,10a,10b,11,12,12a-tetradecahydrocyclopenta[5,6]naphtho[1,2-f]indazole-1-carbothioate], the pIC50 was 7.42. Regarding `CC(C)OC(=O)O[C@]1(C(=O)SCC#N)CC[C@H]2[C@@H]3CCC4=Cc5c(cnn5-c5ccc(F)cc5)C[C@]4(C)[C@H]3[C@@H](O)C[C@@]21C` [Example 68, S-(Cyanomethyl)(1R,3aS,3bS,10aR,10bS,11S,12aS)-7-(4-fluorophenyl)-11-hydroxy-10a,12a-dimethyl-1-{[(1-methylethoxy)carbonyl]oxy}-1,2,3,3a,3b,4,5,7,10,10a,10b,11,12,12a-tetradecahydrocyclopenta[5,6]naphtho[1,2-f]indazole-1-carbothioate], the pIC50 is 7.92. As for `CNC(=O)[C@@]1(OC(=O)c2ccco2)CC[C@H]2[C@@H]3CCC4=Cc5c(cnn5-c5ccc(F)cc5)C[C@]4(C)[C@H]3[C@@H](O)C[C@@]21C` [Example 69, (1R,3aS,3bS,10aR,10bS,11S,12aS)-7-(4-Fluorophenyl)-11-hydroxy-10a,12a-dimethyl-1-(methylcarbamoyl)-1,2,3,3a,3b,4,5,7,10,10a,10b,11,12,12a-tetradecahydropcyclopenta[5,6]naphtho[1,2-f]indazol-1-yl furan-2-carboxylate], the pIC50 is 8.52. `CNC(=O)[C@@]1(O)CC[C@H]2[C@@H]3CCC4=Cc5c(cnn5-c5ccc(F)cc5)C[C@]4(C)[C@H]3[C@@H](O)C[C@@]21C` [Example 70, (1R,3aS,3bS,10aR,10bS,11S,12aS)-7-(4-Fluorophenyl)-1,11-dihydroxy-N,10a,12a-trimethyl-1,2,3,3a,3b,4,5,7,10,10a,10b,11,12,12a-tetradecahydrocyclopenta[5,6]naphtho[1,2-f]indazole-1-carboxamide]: the pIC50 was 8.42.

For the molecule `C[C@]12Cc3cnn(-c4cccc(Br)c4)c3C=C1CC[C@@H]1[C@@H]2[C@@H](O)C[C@@]2(C)[C@H]1CC[C@]2(OC(=O)c1ccco1)C(=O)SCF` [Example 71, (1R,3aS,10aR,10bS,11S,12aS)-7-(3-Bromophenyl)-1-{[(fluoromethyl)thio]carbonyl}-11-hydroxy-10a,12a-dimethyl-1,2,3,3a,3b,4,5,7,10,10a,10b,11,12,12a-tetradecaphydrocyclopenta[5,6]naphtho[1,2-f]indazol-1-yl furan-2-carboxylate], the negative logarithm of the IC50 (pIC50) is 7.89.
